The test system of data set [1] is DMBA-Induced Rat Mammary Tumors. Description: Effect on progression of DMBA-induced rat mammary tumors. The note with it: 1 mmol/Kg in diet. Type of data set: in vivo. The text has this: The control rats received DMBA intubation only and AIN-76A rat chow.
The target of data set [2] is T1, human retinoic acid receptor γ (Homo sapiens, UniProt P13631).
T1 construct: made in house
T1 sequence (P13631 1-454): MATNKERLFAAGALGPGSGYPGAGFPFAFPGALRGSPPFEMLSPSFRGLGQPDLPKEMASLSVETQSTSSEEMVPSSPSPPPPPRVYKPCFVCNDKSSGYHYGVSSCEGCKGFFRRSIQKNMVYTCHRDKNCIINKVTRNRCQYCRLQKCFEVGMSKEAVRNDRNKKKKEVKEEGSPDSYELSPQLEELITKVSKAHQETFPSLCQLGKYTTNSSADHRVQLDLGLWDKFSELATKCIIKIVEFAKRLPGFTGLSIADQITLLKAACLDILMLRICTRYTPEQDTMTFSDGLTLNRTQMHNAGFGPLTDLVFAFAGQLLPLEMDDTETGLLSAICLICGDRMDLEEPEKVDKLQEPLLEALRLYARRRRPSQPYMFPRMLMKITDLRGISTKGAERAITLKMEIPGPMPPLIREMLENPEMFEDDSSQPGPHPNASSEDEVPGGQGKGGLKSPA
Description: Competition binding / retinoic acid binding, human retinoic acid receptor γ/BCV (FIG. 1).

For data set [3], the system named is MCF-7 cells. Description: Growth inhibition of MCF-7 human mammary tumor cells. In kind it is cell-based. The note with it: for IC50: Homo sapiens, MCF7, 168 h, 7 days, read-out: ED50 for growth inhibition of MCF-7 cells; for growth inhibition of MCF-7 cells, in words: comparison of drugs. The method, then:
The antiproliferative activity of the drugs in MCF-7 human mammary tumor cell culture models were determined.
The MCF-7 cells were obtained originally from the Michigan Cancer Foundation. The cells were routinely grown as monolayers in T-25 plastic tissue culture flasks from Falcon, in Oxnard, Calif. containing 5.0 mL of B-10 medium consisting of Minimum Essential Medium (MEM, Earle's Base) supplemented with 1.0 mM MEM non-essential amino acid, 2.0 mM 1-glutamine,10% fetal bovine serum (FBS), and antibiotics. Culture conditions included a humidified atmosphere of 5% CO2 at 37° C. One-half of the medium was replenished twice a week. Cells were harvested by trypsinization upon confluency. All variables were evaluated in triplicate.
For the growth inhibition assay the MCF-7 cells were plated in 24-well plates at a density of 1.5×10^4 cells/cm^2. […] Control cultures were treated with an equivalent volume of absolute ethanol. On day 7 the cells were harvested by trypsinization and viability was assessed by trypan blue exclusion according to Ueda, H. et al. Cancer 1980, 46, 2203-2209. Total cell counts were obtained using a hemocytometer as well as a the Coulter Counter.

In data set [4] the target is T2, mRARα (Mus musculus, UniProt P11416).
T2 construct: made in house; host or cells: Spodoptera frugiperda insect cells, baculovirus (whole cell extract)
T2 sequence (P11416 1-462): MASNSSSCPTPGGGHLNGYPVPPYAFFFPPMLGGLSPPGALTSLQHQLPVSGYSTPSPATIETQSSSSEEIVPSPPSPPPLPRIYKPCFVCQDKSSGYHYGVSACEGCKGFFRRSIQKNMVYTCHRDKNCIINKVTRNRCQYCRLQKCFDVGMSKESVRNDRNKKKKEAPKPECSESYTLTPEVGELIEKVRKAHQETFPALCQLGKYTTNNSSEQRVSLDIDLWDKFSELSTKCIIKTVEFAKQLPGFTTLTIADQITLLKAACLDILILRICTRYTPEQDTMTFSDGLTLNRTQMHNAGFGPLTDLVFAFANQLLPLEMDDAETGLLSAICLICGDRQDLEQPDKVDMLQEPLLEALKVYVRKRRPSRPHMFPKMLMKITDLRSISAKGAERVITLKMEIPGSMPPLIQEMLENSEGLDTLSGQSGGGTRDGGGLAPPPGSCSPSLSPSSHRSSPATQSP
Put plainly: Drug competition with (3H)retinoic acid binding, mRARα. The following applies: read-out: percent reduction of binding of the (3H)retinoic acid, mRARα.

In data set [5] the test system is retinoic acid receptors α, β and γ. Description: Competition with retinoic acid for retinoic acid receptors (RAR α, β, γ), overall. In kind it is binding. The following applies: 1 μM drug.
Data set [6] has as its target T3, mRARγ (Mus musculus, UniProt P18911).
T3 construct: made in house; host or cells: Spodoptera frugiperda insect cells, baculovirus (whole cell extract)
T3 sequence (P18911 1-458): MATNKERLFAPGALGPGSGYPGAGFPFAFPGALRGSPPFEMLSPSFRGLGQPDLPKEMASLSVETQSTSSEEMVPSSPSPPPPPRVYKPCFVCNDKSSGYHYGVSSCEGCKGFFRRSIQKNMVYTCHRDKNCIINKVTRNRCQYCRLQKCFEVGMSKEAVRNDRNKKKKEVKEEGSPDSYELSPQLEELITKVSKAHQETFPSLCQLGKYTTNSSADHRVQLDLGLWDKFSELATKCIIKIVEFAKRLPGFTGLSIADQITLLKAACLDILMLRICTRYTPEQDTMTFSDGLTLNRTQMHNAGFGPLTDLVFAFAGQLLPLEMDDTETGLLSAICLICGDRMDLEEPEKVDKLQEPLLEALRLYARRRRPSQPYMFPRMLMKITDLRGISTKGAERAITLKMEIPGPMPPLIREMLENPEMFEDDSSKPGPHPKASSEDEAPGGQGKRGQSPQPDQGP
Description: Drug competition with (3H)retinoic acid binding, mRARγ. The note with it: read-out: percent reduction of binding of the (3H)retinoic acid, mRARγ; 1 μM drug; 5 nM [3H]RA.

The target of data set [7] is T4, mRARβ (Mus musculus, UniProt P22605).
T4 construct: made in house; host or cells: Spodoptera frugiperda insect cells, baculovirus (whole cell extract)
T4 sequence (P22605 1-448 isoform P22605-3): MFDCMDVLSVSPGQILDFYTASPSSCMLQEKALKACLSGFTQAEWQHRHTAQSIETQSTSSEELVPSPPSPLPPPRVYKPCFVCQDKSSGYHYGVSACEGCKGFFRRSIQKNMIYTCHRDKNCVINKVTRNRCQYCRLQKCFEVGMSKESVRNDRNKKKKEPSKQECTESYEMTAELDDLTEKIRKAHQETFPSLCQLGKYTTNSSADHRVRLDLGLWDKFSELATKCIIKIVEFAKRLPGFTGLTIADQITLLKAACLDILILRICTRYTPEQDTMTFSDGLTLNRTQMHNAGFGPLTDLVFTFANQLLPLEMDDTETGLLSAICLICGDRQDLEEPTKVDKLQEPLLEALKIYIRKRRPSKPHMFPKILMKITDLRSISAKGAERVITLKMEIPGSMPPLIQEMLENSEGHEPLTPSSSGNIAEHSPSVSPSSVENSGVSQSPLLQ
Put plainly: Drug competition with (3H)retinoic acid binding, mRARβ. The note with it: read-out: percent reduction of binding of the (3H)retinoic acid, mRARβ; 1 μM drug; 5 nM [3H]RA.

The target of data set [8] is T5, β-glucuronidase (Homo sapiens, UniProt P08236).
T5 sequence (P08236 23-651): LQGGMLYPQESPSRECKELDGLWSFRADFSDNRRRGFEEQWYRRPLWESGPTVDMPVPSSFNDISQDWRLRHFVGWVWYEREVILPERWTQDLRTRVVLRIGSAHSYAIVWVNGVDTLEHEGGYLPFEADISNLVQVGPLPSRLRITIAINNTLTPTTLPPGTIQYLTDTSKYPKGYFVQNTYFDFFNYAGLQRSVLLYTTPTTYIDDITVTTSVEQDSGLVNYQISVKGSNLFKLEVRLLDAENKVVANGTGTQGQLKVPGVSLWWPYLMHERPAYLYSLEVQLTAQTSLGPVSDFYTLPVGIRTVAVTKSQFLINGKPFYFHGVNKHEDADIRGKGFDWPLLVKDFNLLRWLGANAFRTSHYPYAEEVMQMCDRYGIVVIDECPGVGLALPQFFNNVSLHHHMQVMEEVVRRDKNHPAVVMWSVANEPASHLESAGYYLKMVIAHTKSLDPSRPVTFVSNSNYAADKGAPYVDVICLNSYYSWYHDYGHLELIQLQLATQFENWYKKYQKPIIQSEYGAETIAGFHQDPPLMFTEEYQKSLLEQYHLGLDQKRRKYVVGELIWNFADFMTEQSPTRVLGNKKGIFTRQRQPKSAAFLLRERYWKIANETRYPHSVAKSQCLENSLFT
Description: Inhibition of β-glucuronidase mediated hydrolysis of 4-HPR-O-glucuronide. Type of data set: biochemical. The following applies: for IC50: 10% methanol as co-solvent, 4-HPR-O-glucuronide below 184.5 μM. An excerpt: Chem. Soc., (1954), 76, 4872-4877.

Data set [9] in a line: Acid stability, 0.1N methanolic HCl at 37° C. for 2 hours. In kind it is physicochemical. The method, then:
To determine the stability of the C-glucopyranosiduronate linkage towards acidic conditions, samples of 4-HPR-O-glucuronide, 4-(retinamido)phenyl-C-glucuronide and 4-(retinamido)benzyl-C-glucuronide were treated with 0.1N methanolic HCl at 37° C. for 2 hours.

Data set [10] concerns cancer. The following applies: literature; cited from earlier work.

This is an account of results in patent US5599953A, “C-glycoside analogues of N-(4-hydroxyphenyl)retinamide-O-glucuronide” (The Ohio State Research Foundation, priority 1995, dated 1997).

As a reminder, the Ki is the dissociation constant of the complex between target and ligand, obtained from inhibition or displacement. Higher therefore signals lower affinity.

Each structure is given as a SMILES string. Entries after “also recorded” stand apart in the source; their conditions may differ. Read-outs that look alike come from different tables or passages of the source.

On to `CC1=C(/C=C/C(C)=C/C=C/C(C)=C/C(=O)N[C@@H]2O[C@H](CO)[C@@H](O)[C@H](O)[C@H]2O)C(C)(C)CCC1` [1-(B-D-glucopyranosyl) retinamide, 1-(β-D-glucopyranosyl) retinamide], for which the “effect on DMBA-induced mammary tumor development, in words” value in data set [1] was “significantly prolonged the latency period of mammary cancer; also recorded: tumor induction was markedly delayed and reduced; also recorded: greater mammary tumor chemopreventive effect than does retinoic acid; also recorded: inhibit DMBA induced mammary tumor development”. In addition, in [1] (15 mg DMBA oral), the tumor latency was determined as 64 days. Besides, in data set [1] (110 days post intubation), the tumor incidents was 58% and the tumor number/rat amounted to 0.92 tumors per rat. The affinity in [2] (1.3 nM [3H]-retinoic acid), expressed as Ki, was 0.71 µM. In data set [2] (vs retinoic acid, FIG. 1), the “fold less effective than retinoic acid in competing for [3H]-retinoic acid binding to retinoic acid receptor γ” value is 1500 fold.
As to `CC1=C(/C=C/C(C)=C/C=C/C(C)=C/C(=O)Nc2ccc(C[C@@H]3O[C@H](CO)[C@@H](O)[C@H](O)[C@H]3O)cc2)C(C)(C)CCC1` [4-(retinamido)benzyl-C-glucoside], the IC50 in [3] (Assay 1) worked out at 3.4 µM. Further, in [3], the “growth inhibition of MCF-7 cells, in words” value (from here on “growth inhibition”) is reported as “exhibit the best growth inhibition of the cells”. The inhibition at 1 µM in data set [4] (1 μM drug, 5 nM [3H]RA) was determined as 56%; in [6], 77%; in data set [7], 64%. The “competition with retinoic acid for the receptors, in words” value (“competition with retinoic acid” below) in data set [5] is given as “significantly compete with retinoic acid for the receptors”.
On to `CC1=C(/C=C/C(C)=C/C=C/C(C)=C/C(=O)Nc2ccc(C[C@@H]3O[C@H](C(=O)O)[C@@H](O)[C@H](O)[C@H]3O)cc2)C(C)(C)CCC1` [4-(retinamido)benzyl-C-glucuronide], for which the results for the IC50 in [3] (Assay 1) and in [8] were 6.5 µM and 236 µM, respectively. For the same compound, in data set [3], the “growth inhibition” value is reported as “exhibit the best growth inhibition of the cells”. For the same compound, the inhibition at 1 µM in [4] (1 μM drug, 5 nM [3H]RA) came to 67%; in [6], 78%; in data set [7], 82%. In [8], the “inhibition of β-glucuronidase mediated hydrolysis, in words” value is reported as “slightly more effective than the 4-(retinamido)phenyl-C-glucuronide”. The “competition with retinoic acid” value in data set [5] is recorded as “significantly compete with retinoic acid for the receptors”. The “acid hydrolysis (stability)” value in [9] is recorded as “remained essentially intact”.
With `CC1=C(/C=C/C(C)=C/C=C/C(C)=C/C(=O)Nc2ccc(C[C@@H]3OC[C@@H](O)[C@H](O)[C@H]3O)cc2)C(C)(C)CCC1` [4-(retinamido)benzyl-C-xyloside], the IC50 in [3] (Assay 2) came to 15 µM. Also, the inhibition at 1 µM in data set [4] (1 μM drug, 5 nM [3H]RA) was found to be 12%; in data set [6] it was 2%; in [7] it was 3%.
Consider `CC1=C(/C=C/C(C)=C/C=C/C(C)=C/C(=O)Nc2ccc([C@@H]3O[C@H](CO)[C@@H](O)[C@H](O)[C@H]3O)cc2)C(C)(C)CCC1` [4-(retinamido)phenyl-C-glucoside], for which, in data set [3] (Assay 2), the IC50 was determined as 27 µM.
With `CC1=C(/C=C/C(C)=C/C=C/C(C)=C/C(=O)Nc2ccc([C@@H]3O[C@H](C(=O)O)[C@@H](O)[C@H](O)[C@H]3O)cc2)C(C)(C)CCC1` [4-(retinamido)phenyl-C-glucuronide], the IC50 came out at 50 µM in data set [3] (Assay 3) and 267 µM in data set [8]. The “growth inhibition” value in data set [3] was “potency consistent with its glucoside analogue”. Moreover, the inhibition at 1 µM in [4] (1 μM drug, 5 nM [3H]RA) is 48%; in data set [6], 40%; in data set [7], 47%. Besides, the “inhibition of β-glucuronidase mediated hydrolysis, in words” value in [8] is “act as inhibitors of β-glucuronidase mediated hydrolysis”. Further, the “competition with retinoic acid” value in data set [5] was “significantly compete with retinoic acid for the receptors”. The “acid hydrolysis (stability)” value in data set [9] is reported as “remained essentially intact”.
`CC1=C(/C=C/C(C)=C/C=C/C(C)=C\C(=O)O)C(C)(C)CCC1` [13-cis-retinoic acid, reference compound]: the cancer preventive activity result in [10] is “display cancer preventive activity”. In addition, the inhibition at 1 µM worked out at 28% in [4] and 4% in data set [6].
On to `CC(=O)OC/C=C(C)/C=C/C=C(C)/C=C/C1=C(C)CCCC1(C)C` [retinyl acetate], for which the cancer preventive activity result in data set [10] is on record as “display cancer preventive activity”.
